# Reference: patent publication US4340609A, “Amidinourea derivative veterinary compositions for suppression of parasitemia” (William H. Rorer, Inc., priority 1980, dated 1982)
# Where a name gives a salt, the structure may show the parent alone. Read-outs that look alike come from different tables or passages of the source.
# Columns and labels:
# plasmodium berghei = assay: suppression of parasitemia in mice infected with plasmodium berghei; format: in vivo; details: for ED50: Plasmodium berghei, sc; for ED50 / Mean % Parasitemia / Mean % Suppression / % died: mice; for FACTOR (HIGHEST SED50 ÷ LOWEST SED50): factor of change, duration of action
# Summary of the method: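 Mice, 10 per dose group, infected intraperitoneally with 5,000,000 P. berghei-parasitized blood cells. Seven doses from 0.15 to 10 mg/kg (as base) in 0.5% methocel were given subcutaneously on days 1, 2 and 3. Parasitemia was followed by blood smears on days 4, 5, 6 and 10.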
# LD50 in mice = details: mouse, in vivo
# [1] = 96 h, s.c., levels of parasitemia, 4th day, read-out: SED50 (Suppressant Effective Dose50)
# [2] = 120 h, s.c., levels of parasitemia, 5th day, read-out: SED50 (Suppressant Effective Dose50)
# [3] = 144 h, s.c., levels of parasitemia, 6th day, read-out: SED50 (Suppressant Effective Dose50)
# [4] = 240 h, s.c., levels of parasitemia, 10th day, read-out: SED50 (Suppressant Effective Dose50)
# [5] = day 4 to day 10, read-out: HIGHEST SED50
# [6] = day 4 to day 10, read-out: LOWEST SED50
# [7] = s.c., 1.0 mg/kg on days 1-3, 4th day
# [8] = s.c., 1.0 mg/kg on days 1-3, 5th day
# [9] = s.c., 1.0 mg/kg on days 1-3, 6th day
# [10] = s.c., 1.0 mg/kg on days 1-3, 10th day
# [11] = s.c., 2.0 mg/kg on days 1-3, 4th day
# [12] = s.c., 2.0 mg/kg on days 1-3, 5th day
# [13] = s.c., 2.0 mg/kg on days 1-3, 6th day
# [14] = s.c., 2.0 mg/kg on days 1-3, 10th day
# [15] = s.c., 2.0 mg/kg on days 1-3, 12th day
# [16] = s.c., 2.0 mg/kg on days 1-3, 13th day
# [17] = s.c., 2.0 mg/kg on days 1-3, 14th day
# [18] = s.c., 10.0 mg/kg on days 1-3, 4th day
# [19] = s.c., 10.0 mg/kg on days 1-3, 5th day
# [20] = s.c., 10.0 mg/kg on days 1-3, 6th day
# [21] = s.c., 10.0 mg/kg on days 1-3, 10th day
# [22] = s.c., 10.0 mg/kg on days 1-3, 13th day
# [23] = s.c., 10.0 mg/kg on days 1-3, 14th day
# [24] = s.c., .15 mg/kg on days 1-3, 4th day
# [25] = s.c., .15 mg/kg on days 1-3, 5th day
# [26] = s.c., .15 mg/kg on days 1-3, 6th day
# [27] = s.c., .15 mg/kg on days 1-3, 10th day
# [28] = s.c., .20 mg/kg on days 1-3, 4th day
# [29] = s.c., .20 mg/kg on days 1-3, 5th day
# [30] = s.c., .20 mg/kg on days 1-3, 6th day
# [31] = s.c., .20 mg/kg on days 1-3, 10th day
# [32] = s.c., .20 mg/kg on days 1-3, 12th day
# [33] = s.c., .20 mg/kg on days 1-3, 13th day
# [34] = s.c., .20 mg/kg on days 1-3, 14th day
# [35] = s.c., .30 mg/kg on days 1-3, 4th day
# [36] = s.c., .30 mg/kg on days 1-3, 5th day
# [37] = s.c., .30 mg/kg on days 1-3, 6th day
# [38] = s.c., .30 mg/kg on days 1-3, 10th day
# [39] = s.c., .50 mg/kg on days 1-3, 4th day
# [40] = s.c., .50 mg/kg on days 1-3, 5th day
# [41] = s.c., .50 mg/kg on days 1-3, 6th day
# [42] = s.c., .50 mg/kg on days 1-3, 10th day
# [43] = s.c., .50 mg/kg on days 1-3, 12th day
# [44] = s.c., .50 mg/kg on days 1-3, 13th day
# [45] = s.c., .50 mg/kg on days 1-3, 14th day
structure (smiles),measurement,setting,value
"CCCN=C(NC)NC(=O)Nc1c(C)cccc1C [Compound D, 1-(2,6-dimethylphenyl)-3-N-methyl-N'-propylamidino)urea hydrochloride]",ED50,plasmodium berghei; [1],0.9 mg/kg
same,ED50,plasmodium berghei; [2],1.91 mg/kg
same,ED50,plasmodium berghei; [3],2.09 mg/kg
same,ED50,plasmodium berghei; [4],4.47 mg/kg
same,ED50,plasmodium berghei; [5],4.47 mg/kg
same,ED50,plasmodium berghei; [6],0.9 mg/kg
same,FACTOR (HIGHEST SED50 ÷ LOWEST SED50),plasmodium berghei; day 4 to day 10,4.97
same,Mean % Parasitemia,plasmodium berghei; [7],2.25%
same,Mean % Suppression,plasmodium berghei; [7],57.1%
same,Mean % Parasitemia,plasmodium berghei; [8],6.50%
same,Mean % Suppression,plasmodium berghei; [8],11.0%
same,Mean % Parasitemia,plasmodium berghei; [9],6.70%
same,Mean % Suppression,plasmodium berghei; [9],28.0%
same,Mean % Parasitemia,plasmodium berghei; [10],22.4%
same,Mean % Suppression,plasmodium berghei; [10],36.9%
same,% died,"plasmodium berghei; s.c., 1.0 mg/kg on days 1-3, 12th day",20%
same,% died,"plasmodium berghei; s.c., 1.0 mg/kg on days 1-3, 13th day",20%
same,% died,"plasmodium berghei; s.c., 1.0 mg/kg on days 1-3, 14th day",40%
same,Mean % Parasitemia,plasmodium berghei; [11],1.75%
same,Mean % Suppression,plasmodium berghei; [11],66.6%
same,Mean % Parasitemia,plasmodium berghei; [12],3.30%
same,Mean % Suppression,plasmodium berghei; [12],54.8%
same,Mean % Parasitemia,plasmodium berghei; [13],4.80%
same,Mean % Suppression,plasmodium berghei; [13],48.4%
same,Mean % Parasitemia,plasmodium berghei; [14],20.5%
same,Mean % Suppression,plasmodium berghei; [14],42.3%
same,% died,plasmodium berghei; [15],20%
same,% died,plasmodium berghei; [16],20%
same,% died,plasmodium berghei; [17],20%
same,Mean % Parasitemia,plasmodium berghei; [18],0.25%
same,Mean % Suppression,plasmodium berghei; [18],96.2%
same,Mean % Parasitemia,plasmodium berghei; [19],0%
same,Mean % Suppression,plasmodium berghei; [19],100.0%
same,Mean % Parasitemia,plasmodium berghei; [20],0%
same,Mean % Suppression,plasmodium berghei; [20],100.0%
same,Mean % Parasitemia,plasmodium berghei; [21],0%
same,Mean % Suppression,plasmodium berghei; [21],100.0%
same,% died,plasmodium berghei; [22],0%
same,% died,plasmodium berghei; [23],0%
same,Mean % Parasitemia,plasmodium berghei; [24],5.00%
same,Mean % Suppression,plasmodium berghei; [24],4.8%
same,Mean % Parasitemia,plasmodium berghei; [25],7.40%
same,Mean % Suppression,plasmodium berghei; [25],0%
same,Mean % Parasitemia,plasmodium berghei; [26],9.20%
same,Mean % Suppression,plasmodium berghei; [26],1.1%
same,Mean % Parasitemia,plasmodium berghei; [27],34.0%
same,Mean % Suppression,plasmodium berghei; [27],4.2%
same,% died,"plasmodium berghei; s.c., .15 mg/kg on days 1-3, 12th day",0%
same,% died,"plasmodium berghei; s.c., .15 mg/kg on days 1-3, 13th day",20%
same,% died,"plasmodium berghei; s.c., .15 mg/kg on days 1-3, 14th day",80%
same,Mean % Parasitemia,plasmodium berghei; [28],4.50%
same,Mean % Suppression,plasmodium berghei; [28],14.3%
same,Mean % Parasitemia,plasmodium berghei; [29],7.30%
same,Mean % Suppression,plasmodium berghei; [29],0%
same,Mean % Parasitemia,plasmodium berghei; [30],9.10%
same,Mean % Suppression,plasmodium berghei; [30],2.2%
same,Mean % Parasitemia,plasmodium berghei; [31],30.8%
same,Mean % Suppression,plasmodium berghei; [31],13.2%
same,% died,plasmodium berghei; [32],40%
same,% died,plasmodium berghei; [33],60%
same,% died,plasmodium berghei; [34],100%
same,Mean % Parasitemia,plasmodium berghei; [35],4.50%
same,Mean % Suppression,plasmodium berghei; [35],14.3%
same,Mean % Parasitemia,plasmodium berghei; [36],7.20%
same,Mean % Suppression,plasmodium berghei; [36],1.4%
same,Mean % Parasitemia,plasmodium berghei; [37],8.20%
same,Mean % Suppression,plasmodium berghei; [37],11.8%
same,Mean % Parasitemia,plasmodium berghei; [38],26.5%
same,Mean % Suppression,plasmodium berghei; [38],25.4%
same,% died,"plasmodium berghei; s.c., .30 mg/kg on days 1-3, 12th day",0%
same,% died,"plasmodium berghei; s.c., .30 mg/kg on days 1-3, 13th day",0%
same,% died,"plasmodium berghei; s.c., .30 mg/kg on days 1-3, 14th day",60%
same,Mean % Parasitemia,plasmodium berghei; [39],3.50%
same,Mean % Suppression,plasmodium berghei; [39],33.3%
same,Mean % Parasitemia,plasmodium berghei; [40],7.10%
same,Mean % Suppression,plasmodium berghei; [40],2.7%
same,Mean % Parasitemia,plasmodium berghei; [41],7.30%
same,Mean % Suppression,plasmodium berghei; [41],21.5%
same,Mean % Parasitemia,plasmodium berghei; [42],24.3%
same,Mean % Suppression,plasmodium berghei; [42],31.5%
same,% died,plasmodium berghei; [43],20%
same,% died,plasmodium berghei; [44],40%
same,% died,plasmodium berghei; [45],80%
same,LD50,LD50 in mice,222 to 366 mg/kg
"Cc1cccc(C)c1NC(=O)NC(=N)NC(C)C.Cl [Compound E, 1-(2,6-dimethylphenyl)-3-(isopropylamidino)urea hydrochloride]",ED50,plasmodium berghei; [1],0.9 mg/kg
same,ED50,plasmodium berghei; [2],1.52 mg/kg
same,ED50,plasmodium berghei; [3],1.52 mg/kg
same,ED50,plasmodium berghei; [4],5.63 mg/kg
same,ED50,plasmodium berghei; [5],5.63 mg/kg
same,ED50,plasmodium berghei; [6],0.9 mg/kg
same,FACTOR (HIGHEST SED50 ÷ LOWEST SED50),plasmodium berghei; day 4 to day 10,6.26
same,Mean % Parasitemia,plasmodium berghei; [11],1.75%
same,Mean % Suppression,plasmodium berghei; [11],66.7%
same,Mean % Parasitemia,plasmodium berghei; [12],3.50%
same,Mean % Suppression,plasmodium berghei; [12],52.1%
same,Mean % Parasitemia,plasmodium berghei; [13],4.10%
same,Mean % Suppression,plasmodium berghei; [13],55.9%
same,Mean % Parasitemia,plasmodium berghei; [14],27.7%
same,Mean % Suppression,plasmodium berghei; [14],22.0%
same,% died,plasmodium berghei; [15],0%
same,% died,plasmodium berghei; [16],20%
same,% died,plasmodium berghei; [17],40%
same,Mean % Parasitemia,plasmodium berghei; [18],0%
same,Mean % Suppression,plasmodium berghei; [18],100.0%
same,Mean % Parasitemia,plasmodium berghei; [19],0%
same,Mean % Suppression,plasmodium berghei; [19],100.0%
same,Mean % Parasitemia,plasmodium berghei; [20],0%
same,Mean % Suppression,plasmodium berghei; [20],100.0%
same,Mean % Parasitemia,plasmodium berghei; [21],0%
same,Mean % Suppression,plasmodium berghei; [21],100.0%
same,% died,"plasmodium berghei; s.c., 10.0 mg/kg on days 1-3, 12th day",0%
same,% died,plasmodium berghei; [22],0%
same,% died,plasmodium berghei; [23],0%
same,Mean % Parasitemia,plasmodium berghei; [28],5.25%
same,Mean % Suppression,plasmodium berghei; [28],0%
same,Mean % Parasitemia,plasmodium berghei; [29],7.00%
same,Mean % Suppression,plasmodium berghei; [29],4.1%
same,Mean % Parasitemia,plasmodium berghei; [30],8.70%
same,Mean % Suppression,plasmodium berghei; [30],6.5%
same,Mean % Parasitemia,plasmodium berghei; [31],33.9%
same,Mean % Suppression,plasmodium berghei; [31],4.5%
same,% died,plasmodium berghei; [32],0%
same,% died,plasmodium berghei; [33],60%
same,% died,plasmodium berghei; [34],60%
same,Mean % Parasitemia,plasmodium berghei; [39],2.50%
same,Mean % Suppression,plasmodium berghei; [39],52.3%
same,Mean % Parasitemia,plasmodium berghei; [40],6.90%
same,Mean % Suppression,plasmodium berghei; [40],5.5%
same,Mean % Parasitemia,plasmodium berghei; [41],7.40%
same,Mean % Suppression,plasmodium berghei; [41],20.4%
same,Mean % Parasitemia,plasmodium berghei; [42],31.3%
same,Mean % Suppression,plasmodium berghei; [42],11.8%
same,% died,plasmodium berghei; [43],0%
same,% died,plasmodium berghei; [44],20%
same,% died,plasmodium berghei; [45],60%
same,LD50,LD50 in mice,82 to 135 mg/kg
